# From patent US12180146B2, “Antihypertensive polyol compound and derivative thereof” (TAO PHARMACEUTICAL (SUZHOU) CO., LTD, priority 2020, dated 2024)
# Key:
# [1] = system: spontaneously hypertensive rats (SHR); experiment: Antihypertensive activity test: blood pressure and heart rate of spontaneously hypertensive rats (SHR); type: in vivo, rat; details: 200 mg/kg
# Method in brief: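 Spontaneously hypertensive rats received compound at 200 mg/kg. SBP and heart rate were measured before and after dosing. A drop in SBP of ≥20 mmHg from baseline counted as effective, and heart-rate changes were tested by paired t-test (P<0.05).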
# [2] = system: hypoxic pulmonary hypertension model rats; experiment: Hypoxic pulmonary hypertension model rats, oral (gavage) treatment for 28 days; type: in vivo, SD rats; details: hypoxic PAH rats, po
# Description: An animal model of pulmonary hypertension in SD rats was established in a hypoxic and low-pressure environment, and compound 1 was administered by gavage at the same time for treatment. The rat pulmonary artery hemodynamics and right heart hypertrophy index RVHI were measured to determine whether compound 1 has effects of improving hypoxic pulmonary hypertension.
# SD rats (purchased from Shanghai Xipuer-Bikai Experimental Animal Co., Ltd.), male, weighing 180-200 g, were bred in an artificially controlled animal room with each 12 hours of light and darkness at a temperature of 20-25° C. and relative humidity of 50-60%, and allowed ad libitum to food and water. The rats were randomly divided into groups according to the experimental requirements, and kept separately in cages, with 3 to 4 rats per cage. All relevant operations of animal experiments are in compliance with the provisions of “Guidelines for the Management and Use of Laboratory Animals” of China.
# The hypoxic PAH model was established by placing SD male rats in a fully-automatically regulated low-pressure hypoxic chamber (atmospheric pressure of about 50 kPa, oxygen concentration of 10%) for 8 hours a day for 28 days. The rats in the blank control group were kept in a normoxic environment.
# The experimental rats of hypoxic PAH model were divided into 8 groups, namely blank control group, model group, Sidenafil (25 mg/kg) group, compound 1 (10 mg/kg) group, compound 1 (25 mg/kg) group, compound 1 (50 mg/kg) group, compound 1 (100 mg/kg) group, and compound 1 (200 mg/kg) group. The concentration in the parentheses of the group name represents the administration concentration of the compound or drug. In hypoxia-induced PAH experiments, Sidenafil is often used as a positive drug, which can reduce the pulmonary artery pressure in rats and reduce the right ventricular hypertrophy and vascular remodeling. In this experiment, 25 mg/kg of Sidenafil was used as the positive drug. Both the positive drugs Sidenafil and Compound 1 were dissolved in physiological saline and formulated into solutions of different concentrations according to different administration concentrations. The rats were continuously administered for 28 days with an administration volume of 5 ml/kg. Rats in the control and model groups were given the corresponding volume of physiological saline solution via gavage. The specific grouping can be found in Table 5.
# After the administration was completed, the POWERLAB biological information acquisition and treatment system was started, and the right cardiac catheter filled with 0.2% heparin sodium (Beijing Solo Technology Co. Ltd.) in normal saline was connected to the pressure transducer and then zero-calibrationed for use. After 20% urethane (Shanghai Yuanye Biotechnology Co., Ltd.) solution was injected into the abdominal cavity of the rats for anesthesia, the right neck hair was shaved and the right jugular vein was isolated and exposed. […] After the typical right ventricular waveform appeared and stabilized for a while, the waveform was recorded, and then the pressure value was read by Powerlab biological information acquisition and processing system (ADInstruments).
# After the pressure was measured, the catheter was taken out, and the rat was dissected immediately to take out the heart and lung tissues. The right ventricle (RV) and the left ventricle and interventricular septum (LV+S) were separated and weighed, and the right heart hypertrophy index RVHI=RV/(LV+S) was calculated. The lung lobe tissue from the right lower part of the lung was separated, soaked in 4% paraformaldehyde (Sigma) for about 1 week to prepare a paraffin section with a thickness of 3 μm, and then conducted to hematoxylin-eosin staining (Wuhan Guge Biotechnology Co., Ltd.). […]
# [3] = after administration (6 h M ± SD), n = 8
# [4] = before administration, M ± SD, n = 8
smiles,measurement,setting,value
"CCc1cccc(C(O)CO)c1 (stereo not shown) [Compound 1, 1-(3-ethylphenyl)-1,2-ethylene glycol]",time after administration of maximum antihypertensive effects,[1],3 h
same,"SHR heart rate, time after administration 0 h","[1]; 0 h, N = 8",356 ± 46.4 beat/min
same,"Heart rate Difference before and after administration, 1 h",[1]; 1 h,−9 beat/min
same,"SBP Difference before and after administration, 1 h",[1]; 1 h,16 mmHg
same,"SHR heart rate, time after administration 1 h","[1]; 1 h, N = 8",348 ± 39.3 beat/min
same,"SHR blood pressure (SBP), time after administration 1 h","[1]; 1 h, n = 8",176 ± 9.55 mmHg
same,"Heart rate Difference before and after administration, 2 h",[1]; 2 h,23 beat/min
same,"SBP Difference before and after administration, 2 h",[1]; 2 h,20 mmHg
same,"SHR heart rate, time after administration 2 h","[1]; 2 h, N = 8",380 ± 34.1 beat/min
same,"SHR blood pressure (SBP), time after administration 2 h","[1]; 2 h, n = 8",172 ± 7.36 mmHg
same,"Heart rate Difference before and after administration, 3 h",[1]; 3 h,28 beat/min
same,"SBP Difference before and after administration, 3 h",[1]; 3 h,23 mmHg
same,"SHR heart rate, time after administration 3 h","[1]; 3 h, N = 8",385 ± 31.5 beat/min
same,"SHR blood pressure (SBP), time after administration 3 h","[1]; 3 h, n = 8",169 ± 4.07 mmHg
same,"Heart rate Difference before and after administration, 4 h",[1]; 4 h,28 beat/min
same,"SBP Difference before and after administration, 4 h",[1]; 4 h,19 mmHg
same,"SHR heart rate, time after administration 4 h","[1]; 4 h, N = 8",385 ± 30.4 beat/min
same,"SHR blood pressure (SBP), time after administration 4 h","[1]; 4 h, n = 8",173 ± 7.15 mmHg
same,"Heart rate Difference before and after administration, 5 h",[1]; 5 h,16 beat/min
same,"SBP Difference before and after administration, 5 h",[1]; 5 h,17 mmHg
same,"SHR heart rate, time after administration 5 h","[1]; 5 h, N = 8",372 ± 28.5 beat/min
same,"SHR blood pressure (SBP), time after administration 5 h","[1]; 5 h, n = 8",175 ± 5.61 mmHg
same,"Heart rate Difference before and after administration, 6 h",[1]; 6 h,17 beat/min
same,"SBP Difference before and after administration, 6 h",[1]; 6 h,11 mmHg
same,"SHR heart rate, time after administration 6 h","[1]; 6 h, N = 8",373 ± 31.3 beat/min
same,"SHR blood pressure (SBP), time after administration 6 h","[1]; 6 h, n = 8",180 ± 6.66 mmHg
same,"Blood pressure (SBP, mmHg) After administration",[1]; [3],174 ± 4.01 mmHg
same,Heart rate (beat/min) After administration,[1]; [3],368 ± 25.5 beat/min
same,Heart rate Difference (beat/min),[1]; after administration minus baseline (6 h),12 beat/min
same,Blood pressure Difference mmHg,[1]; baseline minus after administration (6 h),18 mmHg
same,"Blood pressure (SBP, mmHg) Baseline",[1]; [4],192 ± 7.98 mmHg
same,Heart rate (beat/min) Baseline,[1]; [4],356 ± 46.4 beat/min
same,RVSP,[2]; 10 mg/kg,70.28 ± 4.64 mmHg
same,mPAP,[2]; 10 mg/kg,25.26 ± 3.46 mmHg
same,RVHI,"[2]; 10 mg/kg, RV/(LV+S)",0.467 ± 0.030
same,2 × MT/ED,"[2]; 10 mg/kg, medium thickness ratio of small pulmonary arteries",0.361 ± 0.020
same,2 × MT/ED,[2]; 25 mg/kg,0.323 ± 0.022
same,RVHI,[2]; 25 mg/kg,0.472 ± 0.026
same,RVSP,[2]; 25 mg/kg,71.34 ± 2.12 mmHg
same,mPAP,[2]; 25 mg/kg,22.36 ± 1.78 mmHg
same,2 × MT/ED,[2]; 50 mg/kg,0.304 ± 0.021
same,RVHI,[2]; 50 mg/kg,0.456 ± 0.019
same,RVSP,[2]; 50 mg/kg,67.46 ± 4.28 mmHg
same,mPAP,[2]; 50 mg/kg,21.66 ± 3.28 mmHg
same,2 × MT/ED,[2]; 100 mg/kg,0.266 ± 0.014
same,RVHI,[2]; 100 mg/kg,0.301 ± 0.017
same,RVSP,[2]; 100 mg/kg,59.12 ± 2.12 mmHg
same,mPAP,[2]; 100 mg/kg,15.89 ± 1.12 mmHg
same,2 × MT/ED,[2]; 200 mg/kg,0.241 ± 0.011
same,RVHI,[2]; 200 mg/kg,0.254 ± 0.022
same,RVSP,[2]; 200 mg/kg,54.38 ± 2.98 mmHg
same,mPAP,[2]; 200 mg/kg,15.21 ± 1.92 mmHg
